Measurements: paper PMC4501006, “Preliminary Characterization and In Vivo Studies of Structurally Identical ^18F- and ^125I-Labeled Benzyloxybenzenes for PET/SPECT Imaging of β-Amyloid Plaques” (Scientific Reports, 2015)

Assay: In vivo biodistribution in normal ICR mice
Conditions: i.v.
Method: Histograms of brain and intestine uptake were presented in Fig. 6 for comparison, while detailed data concerning the in vivo biodistribution in normal ICR mice were collected in Table S3 in Supplementary information. […] [^125I]7a and [^125I]12a were rapidly cleared from the normal brain, with only small amounts of radioactivity remaining at 60 min post-injection (0.55% ID/g for [^125I]7a and 0.37% ID/g for [^125I]12a). […] In addition, no significant deiodination was observed (less than 0.5% ID in the thyroid at 60 min).
As the specific activity of ^18F-labeled ligands (about 60 GBq/μmol) was slightly lower than that of corresponding no-carrier-added ^125I-labeled ligands (81 GBq/μmol), the impact of specific activity on pharmacokinetics was studied. In vivo biodistribution of radioactivity after injection of carrier-added [^125I]7a with equal specific activity to corresponding [^18F]7a (60 GBq/μmol) was conducted in normal ICR mice through the same procedure.
A structural model of an Aβ fiber (PDB ID: 2LMO) derived from solid state NMR was downloaded from the RCSB Protein Data Bank (www.rcsb.org/pdb). Geometric optimization was performed using Gaussian 09 at the B3LYP/6–31 G and 3-21G levels in the water phase. Molecular docking was performed using AutoDock4.0, and the docking results were graphed with VMD 1.9.1 software. SYBYL-X 1.1 software was used to predict the binding affinities with previously constructed 3D-QSAR models. All reagents for chemical synthesis were used as purchased without further purification. [^125I]NaI was purchased from PerkinElmer and ^18F^– was kindly provided by the Chinese PLA General Hospital. ^1H and ^13C NMR spectra were recorded on a Bruker Avance III NMR spectrometer (400 MHz for ^1H; 101 MHz for ^13C) in CDCl3 or DMSO-d6 solutions at room temperature. Mass spectra were acquired with a GCT CA127 Micronass UK instrument. X-ray crystallographic data of compound 12a were collected on a Bruker Smart APEX II diffractometer (Bruker Co., Germany) and deposited at the Cambridge Crystallographic Data Centre as supplementary publication (no. CCDC 1063679). HPLC analysis was performed on a Shimadzu SCL-20 AVP equipped with a Bioscan Flow Count 3200 NaI/PMT γ-radiation scintillation detector and a SPD-20A UV detector, λ = 254 nm. A Venusil MP C18 reverse phase column (Agela Technologies, 5 μm, 4.6 × 250 mm) was used for separations and purity determinations with a binary gradient system (acetonitrile: water = 80%: 20%) at a 1.0 mL/min flow rate. Fluorescent observation was performed on the Axio Observer Z1 inverted fluorescence microscope (Zeiss, Germany) equipped with a DAPI filter set (excitation, 405 nm). Post-mortem brain sections from an autopsy-confirmed AD subject and a control subject were acquired from the Chinese Brain Bank. Transgenic mice (APPswe/PSEN1, male) and wild-type mice (C57BL6, male) were purchased from the Institute of Laboratory Animal Science, Chinese Academy of Medical Sciences. Normal ICR mice (20–22 g, male) were used for in vivo biodistribution, dynamic PET/CT and SPECT/CT scans, and biostability experiments. All experiments on mice were performed in accordance with the guidelines approved by the animal care committee of Beijing Normal University and Xiamen University.

SMILES: [18F]CCOc1ccc(COc2ccc(I)cc2)cc1 [[^18F]12a]
- brain2 min/brain60 min ratio: 1.6
- Biodistribution of radioactivity, blood (2 min): 7.53 ± 0.80 % injected dose per gram
- Biodistribution of radioactivity, bone (2 min): 2.55 ± 0.29 % injected dose per gram
- Biodistribution of radioactivity, brain (2 min): > 5 % injected dose per gram
- Biodistribution of radioactivity, heart (2 min): 9.11 ± 1.07 % injected dose per gram
- Biodistribution of radioactivity, intestine (2 min): 7.72 ± 0.54 % injected dose per organ
- Biodistribution of radioactivity, kidney (2 min): 11.63 ± 0.86 % injected dose per gram
- Biodistribution of radioactivity, liver (2 min): 13.20 ± 1.45 % injected dose per gram
- Biodistribution of radioactivity, lung (2 min): 9.17 ± 1.10 % injected dose per gram
- Biodistribution of radioactivity, muscle (2 min): 5.38 ± 0.47 % injected dose per gram
- Biodistribution of radioactivity, pancreas (2 min): 8.75 ± 0.33 % injected dose per gram
- Biodistribution of radioactivity, spleen (2 min): 4.98 ± 0.32 % injected dose per gram
- Biodistribution of radioactivity, stomach (2 min): 1.70 ± 0.08 % injected dose per organ
- Biodistribution of radioactivity, brain (2 min, listed as [18F]12a): 6.76 ± 0.41 % injected dose per gram
- Biodistribution of radioactivity, blood (10 min): 4.55 ± 0.36 % injected dose per gram
- Biodistribution of radioactivity, bone (10 min): 2.13 ± 0.27 % injected dose per gram
- Biodistribution of radioactivity, brain (10 min): 5.73 ± 0.44 % injected dose per gram
- Biodistribution of radioactivity, heart (10 min): 4.40 ± 0.36 % injected dose per gram
- Biodistribution of radioactivity, intestine (10 min): 6.94 ± 0.53 % injected dose per organ
- Biodistribution of radioactivity, kidney (10 min): 6.19 ± 0.46 % injected dose per gram
- Biodistribution of radioactivity, liver (10 min): 4.74 ± 0.36 % injected dose per gram
- Biodistribution of radioactivity, lung (10 min): 4.91 ± 0.60 % injected dose per gram
- Biodistribution of radioactivity, muscle (10 min): 3.92 ± 0.41 % injected dose per gram
- Biodistribution of radioactivity, pancreas (10 min): 3.96 ± 0.27 % injected dose per gram
- Biodistribution of radioactivity, spleen (10 min): 3.55 ± 0.26 % injected dose per gram
- Biodistribution of radioactivity, stomach (10 min): 1.54 ± 0.32 % injected dose per organ
- Biodistribution of radioactivity, blood (30 min): 5.91 ± 0.33 % injected dose per gram
- Biodistribution of radioactivity, bone (30 min): 3.31 ± 0.21 % injected dose per gram
- Biodistribution of radioactivity, brain (30 min): 5.02 ± 0.32 % injected dose per gram
- Biodistribution of radioactivity, heart (30 min): 5.41 ± 0.36 % injected dose per gram
- Biodistribution of radioactivity, intestine (30 min): 8.09 ± 0.43 % injected dose per organ
- Biodistribution of radioactivity, kidney (30 min): 6.19 ± 0.37 % injected dose per gram
- Biodistribution of radioactivity, liver (30 min): 4.84 ± 0.28 % injected dose per gram
- Biodistribution of radioactivity, lung (30 min): 5.34 ± 0.31 % injected dose per gram
- Biodistribution of radioactivity, muscle (30 min): 4.71 ± 0.50 % injected dose per gram
- Biodistribution of radioactivity, pancreas (30 min): 4.55 ± 0.36 % injected dose per gram
- Biodistribution of radioactivity, spleen (30 min): 4.29 ± 0.36 % injected dose per gram
- Biodistribution of radioactivity, stomach (30 min): 2.09 ± 0.32 % injected dose per organ
- Biodistribution of radioactivity, blood (60 min): 5.87 ± 0.19 % injected dose per gram
- Biodistribution of radioactivity, bone (60 min): 3.51 ± 0.78 % injected dose per gram
- Biodistribution of radioactivity, brain (60 min): 4.26 % injected dose per gram
- Biodistribution of radioactivity, heart (60 min): 4.76 ± 0.40 % injected dose per gram
- Biodistribution of radioactivity, intestine (60 min): 8.50 ± 1.23 % injected dose per organ
- Biodistribution of radioactivity, kidney (60 min): 5.48 ± 0.41 % injected dose per gram
- Biodistribution of radioactivity, liver (60 min): 4.64 ± 0.21 % injected dose per gram
- Biodistribution of radioactivity, lung (60 min): 5.19 ± 0.36 % injected dose per gram
- Biodistribution of radioactivity, muscle (60 min): 4.51 ± 0.49 % injected dose per gram
- Biodistribution of radioactivity, pancreas (60 min): 3.95 ± 0.25 % injected dose per gram
- Biodistribution of radioactivity, spleen (60 min): 3.87 ± 0.34 % injected dose per gram
- Biodistribution of radioactivity, stomach (60 min): 1.70 ± 0.29 % injected dose per organ
- Biodistribution of radioactivity, brain (60 min, listed as [18F]12a): 4.26 ± 0.18 % injected dose per gram
